From PMC7057948, “A genome-wide approach for identification and characterisation of metabolite-inducible systems” (Nature Communications, 2020)
Counter-ions that a name gives are not always drawn.

Key:
NahR = molecular target: T1, NahR (Cupriavidus necator, UniProt G0EUZ9); assay: RFP reporter dose-response in C. necator H16, Hill fit; type: cell-based; conditions: read-out: Km^b
T1 construct: native full-length gene, divergent to operon starting at H16_RS08125; reporter plasmid pEH042 (plasmid assigned by list order); not the P. putida NahR
T1 sequence (G0EUZ9 1-300): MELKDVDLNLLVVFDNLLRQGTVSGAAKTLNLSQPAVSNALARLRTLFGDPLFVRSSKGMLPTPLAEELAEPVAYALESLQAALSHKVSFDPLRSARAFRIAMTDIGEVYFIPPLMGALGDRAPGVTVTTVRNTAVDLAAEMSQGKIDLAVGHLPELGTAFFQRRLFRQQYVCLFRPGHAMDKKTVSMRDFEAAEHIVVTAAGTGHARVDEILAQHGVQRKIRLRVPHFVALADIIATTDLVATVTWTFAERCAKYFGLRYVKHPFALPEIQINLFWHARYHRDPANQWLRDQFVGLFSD

BenM [1] = molecular target: T2, BenM (Cupriavidus necator, UniProt Q0KAA5); assay: as above; type: cell-based; conditions: read-out: Km^b
T2 construct: native full-length gene, divergent to operon starting at H16_RS09790; reporter plasmid pEH148 (plasmid assigned by list order)
T2 sequence (Q0KAA5 1-305): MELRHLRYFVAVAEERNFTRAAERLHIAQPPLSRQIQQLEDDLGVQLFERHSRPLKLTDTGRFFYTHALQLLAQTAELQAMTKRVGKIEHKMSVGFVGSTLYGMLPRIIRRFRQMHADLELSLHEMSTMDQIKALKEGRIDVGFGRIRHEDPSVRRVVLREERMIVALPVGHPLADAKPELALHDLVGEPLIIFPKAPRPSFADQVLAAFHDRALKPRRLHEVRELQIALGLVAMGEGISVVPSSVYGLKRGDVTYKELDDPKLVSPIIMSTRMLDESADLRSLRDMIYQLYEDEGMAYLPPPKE
From the text: RFP reporter dose-response in C. necator H16, Hill fit on BenM

TtdR = test system: T3, TtdR; assay: as above; type: cell-based, Cupriavidus necator; conditions: inducer concentration for half-maximal activation; extracellular inducer, minimal medium, 30 °C, 80 min; whole cells with chromosomal regulator copy; read-out: Km^b
T3 construct: native full-length gene, divergent to operon starting at H16_RS10665; reporter plasmid pEH083 (plasmid assigned by list order)
From the text: RFP reporter dose-response in C. necator H16, Hill fit on TtdR

FdsR [2] = assay: cells; design: species or system Cupriavidus necator H16; RFP reporter induction by transcription factor biosensor, fluorescence normalised to cell density, relative to primary effector; conditions: 6 h; relative to primary effector, C. necator, MM; read-out: % activation
Experimental: (§1) To screen the 441 combinations of inducer and biosensor for cross-reactivity, we employed an automated platform (see Methods section). Strains of C. necator harbouring the inducible systems were grown in MM and transferred to a 96-well microtiter plate format. After the inducers had been extracellularly added, cells were cultured for 6 h before RFP fluorescence and cell density were measured. […] The remaining six inducible systems were activated by one or more metabolites other than their cognate inducers. This cross-reactivity may be the result of either structural resemblance, a metabolic relationship or a combination thereof. For example, L-phenylalanine is converted into L-tyrosine by the phenylalanine 4-monooxygenase PhhA (H16_RS18365). Therefore, activation of the L-tyrosine-inducible system by L-phenylalanine is more likely to be due to biological conversion of the added compound into the primary effector rather than direct interaction of L-phenylalanine with HpdA. However, since the difference between the two molecules lies in a singly hydroxyl-group, an induction by structural resemblance cannot be entirely ruled out. The same applies to phenylglyoxylate that activated the benzoate-inducible system. Phenylglyoxylate is converted by C. necator into benzoate via a two-step reaction with benzaldehyde as intermediate compound. During the first reaction, carbon dioxide is generated that may also explain induction of the formate-inducible system by the structurally dissimilar phenylglyoxylate. Since carbon dioxide can subsequently be converted into formate, it is rational to postulate that the FdsR/PH16_RS03165-inducible system is activated in this case by its primary inducer. In addition to phenylglyoxylate, the benzoate-inducible system was activated by extracellular supplementation with cyclohexanecarboxylate and cumate. Cyclohexanecarboxylate shares both a structural resemblance to benzoate and downstream  Fig. 6 Orthogonality of inducible systems. a Cross-reactivity of a set of 21 inducible systems and their corresponding primary inducers. The heat map illustrates induction of reporter gene expression in the presence of the metabolite (in %) relative to the induction mediated by the corresponding primary effector. Measurements were taken 6 h after supplementation with inducer at a final concentration of 5 mM. Data are mean, n = 4. Source data are provided as a Source Data file. b Fluorescence output of individual cells of C. necator carrying pEH263 measured by flow cytometry. The vector pEH263 contains the 3,4-dihydroxybenzoate- and [compound left out]-inducible systems controlling expression of rfp and egfp, respectively. Fluorescence was determined in the absence of inducer (orange), in the presence of 3,4-dihydroxybenzoate (blue), [compound left out] (green), and both 3,4-dihydroxybenzoate and [compound left out] (purple). Effector concentrations correspond to their respective Km’s and fluorescence was measured 2 h after inducer addition.

BenM [3] = assay: cells; design: species or system Cupriavidus necator H16; RFP reporter induction by transcription factor biosensor, fluorescence normalised to cell density, relative to primary effector; conditions: 6 h; relative to primary effector, C. necator, MM; read-out: % activation
Experimental: as §1

FdsR [4] = molecular target: T4, FdsR (Cupriavidus necator, UniProt Q0KDY4); assay: cell-based; design: RFP reporter induction by transcription factor biosensor, single time-point fluorescence in LB, relative to primary effector; conditions: Escherichia coli TOP10; relative to primary effector, E. coli, LB; read-out: % activation
T4 construct: native full-length gene, divergent to operon starting at H16_RS03165; reporter plasmid pEH134 (plasmid assigned by list order)
T4 sequence (Q0KDY4 1-364): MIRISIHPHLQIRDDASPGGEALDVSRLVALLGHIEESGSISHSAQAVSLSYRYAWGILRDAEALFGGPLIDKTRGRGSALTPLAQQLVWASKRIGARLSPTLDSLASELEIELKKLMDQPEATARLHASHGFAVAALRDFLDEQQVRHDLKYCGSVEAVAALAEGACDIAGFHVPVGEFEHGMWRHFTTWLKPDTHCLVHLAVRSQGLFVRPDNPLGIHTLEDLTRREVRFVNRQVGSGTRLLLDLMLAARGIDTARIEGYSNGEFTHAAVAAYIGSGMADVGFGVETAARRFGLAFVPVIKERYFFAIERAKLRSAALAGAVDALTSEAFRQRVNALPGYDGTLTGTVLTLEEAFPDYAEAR
From the text: (§2) TRs often recognise molecules that are structurally similar to their primary effectors. For example, isopropyl β-D-1-thiogalactopyranoside is a commonly used structural analogue of allolactose, employed to control the expression of genes regulated by LacI. Here, the TR’s specificity was investigated to identify previously uncharacterised ligand–TR interactions and consequently extend the biosensor application to the detection of structurally similar or metabolically related compounds. To do so, the library of 21 native and heterologous inducible systems was screened against 46 compounds using an integrated robotic platform, as described in the previous section. […] Similarly to the former orthogonality screen (Fig. 6a), it should be noted that activation of reporter gene expression by the extracellularly added compounds likely indicates a structural resemblance to the primary ligand, a metabolic relationship or a combination thereof. To shed light on their cause of system activation, cultures of E. coli carrying the functional formate-, [compound left out]-, benzoate-, 3,4-dihydroxybenzoate-, acetoin- and β-alanine-inducible systems, active in this host organism, were evaluated for the same cross-reactivity (Supplementary Table 5).  Fig. 3 C. necator native systems mediate controllable gene expression in E. coli and P. putida. Single time-point fluorescence measurements of a, b E. coli and c, d P. putida carrying the C. necator-inducible gene expression systems composed of TR and promoter a, c or ‘promoter only’ version b, d. The plasmids harbouring the individual system– or promoter–reporter gene constructs are indicated. RFP fluorescence output was determined in the absence of inducer (light purple and light blue) and 6 h after extracellular supplementation with the corresponding primary effector to a final concentration of 5 mM (dark purple and dark blue). Data are mean ± SD, n = 3, *p < 0.05, **p < 0.01, ***p ≤ 0.001, ****p ≤ 0.0001, unpaired two-tailed t-test. Source data are provided as a Source Data file. All strains used in this study are listed in Supplementary Table 7. E. coli TOP10 (Life Technologies) was used for cloning and plasmid propagation. For single time-point fluorescence measurements and flow cytometric analyses, bacterial strains were propagated in Luria-Bertani (LB) medium. To determine the dose–responses and to evaluate inducer TR cross-reactivity, C. necator was cultivated in MM containing 1 g/L NH4Cl, 9 g/L Na2HPO4·12H2O, 1.5 g/L KH2PO4, 0.2 g/L MgSO4·7H2O, 0.02 g/L CaCl2·2H2O and 0.0012 g/L (NH4)5[Fe(C6H4O7)2] with 1 mL/L trace element solution SL7 (1.3 mL/L 25% (w/v) HCl, 0.07 g/L ZnCl2, 0.1 g/L MnCl2·4H2O, 0.062 g/L H3BO3, 0.190 g/L CoCl2·6H2O, 0.017 g/L CuCl2·2H2O, 0.024 g/L NiCl2·6H2O and 0.036 g/L Na2MoO4·2H2O) supplemented with 0.4% (w/v) sodium gluconate. If required, antibiotics were added to the growth medium at the following concentrations: 12.5 µg/mL tetracycline or 25 µg/mL chloramphenicol for E. coli, 50 µg/mL chloramphenicol for C. necator and 25 µg/mL tetracycline for P. putida. For solid media preparation, 15 g/L agar was added.

BenM [5] = molecular target: T2, BenM; assay: cell-based; design: RFP reporter induction by transcription factor biosensor, single time-point fluorescence in LB, relative to primary effector; conditions: Escherichia coli TOP10; relative to primary effector, E. coli, LB; read-out: % activation
From the text: as §2

PhgR = test system: T5, PhgR; assay: RFP reporter dose-response in C. necator H16, Hill fit; type: cell-based, Cupriavidus necator; conditions: inducer concentration for half-maximal activation; extracellular inducer, minimal medium, 30 °C, 80 min; whole cells with chromosomal regulator copy; read-out: Km^b
T5 construct: native full-length gene, divergent to operon starting at H16_RS05530; reporter plasmid pEH155 (plasmid assigned by list order)

Q: With `O=C(O)c1ccccc1O` [compound 5, Salicylate] as the compound, how does the EC50 (NahR) read?
A: 2.12 ± 0.49 µM

Q: For `O=C(O)c1ccccc1` [compound 6, Benzoate], which EC50 (BenM [1]) is on record?
A: 12.6 ± 0.8 µM

Q: With `O=C(O)C(O)C(O)C(=O)O` (centres unmarked) [compound 7, Tartrate] as the compound, how does the EC50 (TtdR) read?
A: 61500 ± 22900 µM

Q: `O=C(O)C(=O)c1ccccc1` [compound 4, Phenylglyoxylate] was tested. Which activity at 5000 µM (FdsR [2]) did it give?
A: 52%

Q: What about the activity at 5000 µM (BenM [3]) of the same compound?
A: 17%

Q: And the activity at 5000 µM (FdsR [4])?
A: 0%

Q: And the activity at 5000 µM (BenM [5])?
A: 0.19%

Q: What about the EC50 (PhgR) of the same compound?
A: 595 ± 133 µM
